In patent US7402310B2, “Deoxyribonuclease, gene encoding same and use thereof” (priority 2001, dated 2008):

How the values were obtained:
DLAD [1] = molecular target: T1, DLAD (Mus musculus, UniProt Q9QY48); experiment: Sensitivity of DLAD DNase activity against inhibitors; format: biochemical; conditions: standard conditions: pH 5.2, 45° C., 20 min, plasmid DNA substrate; read-out: IC50, inhibition of DLAD activity
T1 construct: These plasmids encode the mature proteins of DLAD and DNase II, respectively, wherein Myc and His-tags are added to their C termini; made in house; host or cells: HeLa S3 cells (human), transient transfection, Ni-NTA purification
T1 sequence (Q9QY48 23-354): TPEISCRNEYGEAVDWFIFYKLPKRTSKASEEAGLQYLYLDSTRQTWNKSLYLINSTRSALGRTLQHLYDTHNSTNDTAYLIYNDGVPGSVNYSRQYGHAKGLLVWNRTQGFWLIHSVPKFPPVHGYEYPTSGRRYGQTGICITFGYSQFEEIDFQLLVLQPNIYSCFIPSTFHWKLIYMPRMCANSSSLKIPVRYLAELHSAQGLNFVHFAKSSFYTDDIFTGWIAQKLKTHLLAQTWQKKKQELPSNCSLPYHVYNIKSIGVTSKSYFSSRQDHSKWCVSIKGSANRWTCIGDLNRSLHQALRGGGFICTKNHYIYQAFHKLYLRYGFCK
Experimental: In the same manner as in (2) of Example 3, HeLa S3 cells (5×10^6) were transfected with 25 μg of pcmDLAD-Myc-His or pcmDNaseII-Myc-His, individually. These plasmids encode the mature proteins of DLAD and DNase II, respectively, wherein Myc and His-tags are added to their C termini. After incubation of the cells for 48 hr, recombinant DLAD and recombinant DNase II were purified by IMAC using Ni-NTA spin column, in the same manner as in (2) of Example 3. The purified DLAD (or DNase II), which was eluted in 300 μl of elution buffer [50 mM sodium phosphate (pH 8.0) containing 250 mM imidazole and 300 mM NaCl], was dialyzed against 20 mM Mes-NaOH containing 1 mM 2-mercaptoethanol and used in the following assay for enzyme activities. The Sample obtained by treating HeLa S3 cells transfected with empty vector in the same manner was used as a control.
In the following experiments, the assay for DNase activity was performed as below, unless otherwise described. 20 μl of reaction mixture [50 mM Mes-NaOH (pH 5.2), 1 mM 2-mercaptoethanol, 1 unit of enzyme, 500 ng supercoiled or EcoR I-digested linear pBLUESCRIPT KS+ phagemid vector] was prepared on ice and incubated at 45° C. for 20 min. The reaction was terminated with phenol/chloroform and 5 μl aliquot of the reaction mixture was subjected to 1% agarose gel electrophoresis. After ethidium bromide staining, the image was scanned with CCD camera (Atto) under UV transillumination and optical density of the band corresponding to the full length substrate DNA was quantified by densitometry (NIH image 1.60). DNase activity was determined using reduction of the band intensity corresponding to the full length substrate DNA as an index. In the present invention, 1 unit of DLAD and DNase II activities are defined as their amounts required to decrease the band intensity corresponding to 200 ng of the full length substrate DNA under the above-mentioned reaction conditions.
DLAD activities were determined in the presence of various concentrations of DNase inhibitors [MgCl2 (FIG. 2A, ◯), MgSO4 (FIG. 2A, ●), aurintricarboxylic acid (FIG. 2B), G-actin (FIG. 2C), CoCl2 (FIG. 2D, ▪), NiCl2 (FIG. 2D, Δ) and ZnCl2 (FIG. 2D, ●)] under the above-mentioned standard conditions to analyze its sensitivity against the inhibitors. […] In contrast, it is known that there are little differences between these three divalent metal ions in inhibitory effect on DNase II [J. Biochem., 87: 1097-1103 (1980)].

DLAD [2] = molecular target: T1, DLAD; experiment: Divalent cation-dependency of DLAD activity (chelators); format: biochemical; conditions: 1 mM chelator; pH 5.2 and pH 7.2; supercoiled plasmid
Experimental: (§1) In the same manner as in (2) of Example 3, HeLa S3 cells (5×10^6) were transfected with 25 μg of pcmDLAD-Myc-His or pcmDNaseII-Myc-His, individually. These plasmids encode the mature proteins of DLAD and DNase II, respectively, wherein Myc and His-tags are added to their C termini. After incubation of the cells for 48 hr, recombinant DLAD and recombinant DNase II were purified by IMAC using Ni-NTA spin column, in the same manner as in (2) of Example 3. […]
(§2) In the following experiments, the assay for DNase activity was performed as below, unless otherwise described. […] After ethidium bromide staining, the image was scanned with CCD camera (Atto) under UV transillumination and optical density of the band corresponding to the full length substrate DNA was quantified by densitometry (NIH image 1.60). DNase activity was determined using reduction of the band intensity corresponding to the full length substrate DNA as an index. […]
Using a supercoiled plasmid as a substrate, DLAD activities in the presence and absence of a divalent cation chelator were determined under acidic (50 mM Mes-NaOH, pH 5.2) and neutral (50 mM Mops-NaOH, pH 7.2) conditions, respectively. […]

[3] = Characterization of recombinant rat and human DLAD; format: biochemical; conditions: recombinant protein from HeLa S3 cells
Source text: Using the same strategy as in Example 1, a rat EST clone (GenBank AF178974) encoding the amino acid sequence with homology to the deduced amino acid sequence of human DNase II was identified. Oligonucleotide primers were synthesized based on the nucleotide sequence of this clone, followed by the RACE with liver poly A(+) RNA derived from Wister rat, which is connately pigment-deficient (albino), as a template to clone the full length rat DLAD cDNA. From the sequence analysis by a conventional method, it was deduced that this cDNA contains an ORF encoding 356 amino acids with a signal peptide consisting of 22 amino acids at the N terminus. […] An expression vector encoding rat DLAD with Myc and His-tags at the C terminus (prDLAD-Myc-His) was constructed by the same strategy as in (1) of Example 3. HeLa S3 cells were transfected with this vector to generate a recombinant rat DLAD.
(sequence complementary to the nucleotide sequence of the nucleotide Nos. 973 to 999 of the nucleotide sequence shown in Sequence Listing, SEQ ID NO: 4) were synthesized and, further using the above-mentioned linker primer AP1 together with these primers, RACE was performed with human liver-derived poly A(+) RNA as a template to clone the full length human DLAD cDNA. […]

[4] = Stability in the medium for HeLa S3 cells
[5] = system: supercoiled p[…]+ phagemid vector; experiment: Mode of DNA hydrolysis (end labeling of degraded plasmid); format: biochemical; conditions: standard conditions
Experimental: Using a supercoiled pBLUESCRIPT KS+ phagemid vector as a substrate, enzyme reaction of DLAD or DNase II was performed under the above-mentioned standard conditions. After terminating the reaction, contaminants were removed by phenol/chloroform treatment to isolate degraded plasmid DNA. The 3′ ends were labeled in 50 μl of a reaction solution consisting of 20 units of terminal deoxynucleotidyl transferase (Toyobo), 0.83 mCi/ml […], 100 mM sodium cacodylate (pH 7.2), 0.2 mM DTT and 1 mM CoCl2. The 5′ ends were labeled in 50 μl of a reaction solution consisting of 20 units of polynucleotide kinase (Toyobo), 0.83 mCi/ml [γ-^32P]ATP, 50 mM Tris-HCl (pH 8.0), 10 mM MgCl2 and 10 mM 2-mercaptoethanol. The end-labeling treatments were performed as to both DNAs with and without pretreatment with 20 units of calf intestinal alkaline phosphatase (Takara) in the presence of 50 mM Tris-HCl (pH 8.0) and 1 mM MgCl2 to remove the phosphoryl groups in the ends of DNAs, respectively. Unincorporated nucleotides were removed by ethanol precipitation. The labeled DNA was subjected to 1% agarose gel electrophoresis, transferred onto nylon membrane and analyzed with BAS 1500 image analyzer (Fuji Film). […]

supercoiled plasmid = experiment: Active pH range and optimal pH of DNase activity; format: biochemical; conditions: Mes-NaOH; pH 4.0 to 7.6 examined
Experimental: as §1, §2
Using a supercoiled plasmid as a substrate, DLAD and DNase II activities were determined under the above-mentioned standard conditions except varying kinds of buffers and pH [i.e., acetate-NaOH (pH 4.0 and 4.4), Mes-NaOH (pH 4.8, 5.2, 5.6, 6.0 and 6.4) and Mops-NaOH (pH 6.4, 6.8, 7.2 and 7.6)]. […]

`[Cl-].[Cl-].[Zn+2]` [Zn^2+, ZnCl2] showed an IC50 (DLAD [1]) of 0.2 mM.

`O=C(O)C1=CC(=C(c2ccc(O)c(C(=O)O)c2)c2ccc(O)c(C(=O)O)c2)C=CC1=O` [Aurintricarboxylic acid] showed an IC50 (DLAD [1]) of 0.006 mM.

With `O=C(O)CN(CCOCCOCCN(CC(=O)O)CC(=O)O)CC(=O)O` [EGTA] the “Effect of divalent cation chelator on DLAD activity” value (DLAD [2]) was “no effect”.

For `O=S(=O)([O-])[O-].[Mg+2]` [MgSO4], the IC50 (DLAD [1]) was 7 mM.

In the case of `O=C(O)CN(CCN(CC(=O)O)CC(=O)O)CC(=O)O` [EDTA], the “Effect of divalent cation chelator on DLAD activity” value (DLAD [2]) is reported as “no effect”.

`[Cl-].[Cl-].[Mg+2]` [MgCl2] gave an IC50 (DLAD [1]) of 13 mM.

B1: human DLAD: recombinant human DLAD, SEQ ID NO: 3, Myc and His-tags at the C terminus (protein, listed as Homo sapiens)
chain: MKQKMMARLLRTSFALLFLGLFGVLGAATISCRNEEGKAVDWFTFYKLPKRQNKESGETGLEYLYLDSTTRSWRKSEQLMNDTKSVLGRTLQQLYEAYASKSNNTAYLIYNDGVPKPVNYSRKYGHTKGLLLWNRVQGFWLIHSIPQFPPIPEEGYDYPPTGRRNGQSGICITFKYNQYEAIDSQLLVCNPNVYSCSIPATFHQELIHMPQLCTRASSSEIPGRLLTTLQSAQGQKFLHFAKSDSFLDGIFAAWMAQRLKTHLLTETWQRKRQELPSNCSLPYHVYNIKAIKLSRHSYFSSYQDHAKWCISQKGTKNRWTCIGDLNRSPHQAFRSGGFICTQNWQIYQAFQGLVLYYESCK
modifications: C-terminal Myc and His tags
For B1, the “Properties: active pH range, divalent cation-dependency, mode of DNA cleavage, sensitivity to inhibitors” value [3] was “properties similar to mouse DLAD”.

B2: DLAD: novel acid DNase cleaving DNA independently from divalent cations; mouse, amino acid Nos. 1 to 332 of SEQ ID NO: 1 (protein, listed as Mus musculus)
chain: MTAKPLRTVLSLLFFALSGVLGTPEISCRNEYGEAVDWFIFYKLPKRTSKASEEAGLQYLYLDSTRQTWNKSLYLINSTRSALGRTLQHLYDTHNSTNDTAYLIYNDGVPGSVNYSRQYGHAKGLLVWNRTQGFWLIHSVPKFPPVHGYEYPTSGRRYGQTGICITFGYSQFEEIDFQLLVLQPNIYSCFIPSTFHWKLIYMPRMCANSSSLKIPVRYLAELHSAQGLNFVHFAKSSFYTDDIFTGWIAQKLKTHLLAQTWQKKKQELPSNCSLPYHVYNIKSIGVTSKSYFSSRQDHSKWCVSIKGSANRWTCIGDLNRSLHQALRGGGFI
With B2 the “Stability in the medium” value [4] was “as stable as DNase II”, the “DNA cleavage mode (ends generated)” value [5] was 3′-P/5′-OH ends and the “Optimal pH of DNase activity” value (supercoiled plasmid) was 5.2.

B3: rat DLAD: recombinant rat DLAD, ORF encoding 356 amino acids, Myc and His-tags at the C terminus (protein, UniProt Q9QZK9 23-356, looked up)
Deoxyribonuclease-2-beta: TPVISCINEDGKAVDWFAFYKLPRRTSRGGTGMGLDYLYLDSTMRTWSKSHHLINSSRSSLGRTLEQLYEAHNAKNDTAYLIYNDAVPASVNYSGNYGHAKGLLVWNRVQGFWLIHSIPKFPPVPEKGYEYPSSGRQYAQSGLCITLKYSQYETIDSQLLVFQPNIYSCFIPNIFRWELIHMPQMCAKSSASKIPSRRLTVLQSAQGLNFLHFAKSTFYTDDIFAAWIAQKLKVHLLVESWQRKNHELPSNCSLPYHVYNIKAIRGPLQSDFPSHHDHSKWCVSTKDSQARWTCIGDLNRSPHQALRSGGFICSKNRYIYQSFDRLVSHYASCN
modifications: C-terminal Myc and His tags
notes: recombinant rat DLAD, ORF encoding 356 amino acids, Myc and His-tags at the C terminus
For B3, the “Properties: active pH range, divalent cation-dependency, mode of DNA cleavage, sensitivity to inhibitors” value [3] was “properties similar to mouse DLAD”.
